From ChEMBL document CHEMBL1149309, “Potent, selective and low-calcemic inhibitors of CYP24 hydroxylase: 24-sulfoximine analogues of the hormone 1alpha,25-dihydroxyvitamin D(3)” (J Med Chem, 2004)

How the values were obtained:
[1] = molecular target: T1, 1,25-dihydroxyvitamin D(3) 24-hydroxylase, mitochondrial (Homo sapiens, UniProt Q07973); test: Inhibition of human CYP24 hydroxylase expressed in V79 cells; assay type: cell-based
T1 sequence (Q07973 whole entry): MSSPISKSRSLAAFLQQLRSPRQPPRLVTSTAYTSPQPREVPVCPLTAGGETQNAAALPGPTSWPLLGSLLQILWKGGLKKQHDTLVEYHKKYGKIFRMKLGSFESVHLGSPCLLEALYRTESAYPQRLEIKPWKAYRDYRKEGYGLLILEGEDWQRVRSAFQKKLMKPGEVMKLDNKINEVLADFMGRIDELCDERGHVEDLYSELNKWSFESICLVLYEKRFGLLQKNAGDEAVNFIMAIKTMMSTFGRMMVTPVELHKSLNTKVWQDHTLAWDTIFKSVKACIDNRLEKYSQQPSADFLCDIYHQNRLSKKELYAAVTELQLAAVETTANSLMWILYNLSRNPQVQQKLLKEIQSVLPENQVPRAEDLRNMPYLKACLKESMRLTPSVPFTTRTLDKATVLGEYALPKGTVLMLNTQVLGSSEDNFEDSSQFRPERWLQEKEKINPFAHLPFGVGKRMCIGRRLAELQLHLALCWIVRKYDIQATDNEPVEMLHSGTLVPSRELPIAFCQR

[2] = molecular target: T2, 25-hydroxyvitamin D-1 alpha hydroxylase, mitochondrial (Homo sapiens, UniProt O15528); test: Inhibition of human CYP27B hydroxylase expressed in SW900 cells; assay type: cell-based
T2 sequence (O15528 whole entry): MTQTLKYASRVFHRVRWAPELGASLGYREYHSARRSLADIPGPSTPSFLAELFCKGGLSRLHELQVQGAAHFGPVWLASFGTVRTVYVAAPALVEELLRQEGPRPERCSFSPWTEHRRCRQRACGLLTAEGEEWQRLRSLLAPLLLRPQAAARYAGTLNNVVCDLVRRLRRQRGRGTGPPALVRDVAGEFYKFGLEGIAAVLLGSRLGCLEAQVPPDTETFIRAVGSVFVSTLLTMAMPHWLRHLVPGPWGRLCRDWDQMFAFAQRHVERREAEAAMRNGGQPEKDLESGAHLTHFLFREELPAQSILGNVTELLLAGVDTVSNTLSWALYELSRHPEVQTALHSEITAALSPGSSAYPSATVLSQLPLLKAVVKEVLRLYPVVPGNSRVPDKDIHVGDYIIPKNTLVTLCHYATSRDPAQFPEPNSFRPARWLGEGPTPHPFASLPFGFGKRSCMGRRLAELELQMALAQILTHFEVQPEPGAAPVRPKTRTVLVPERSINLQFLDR

[3] = molecular target: T3, Vitamin D3 receptor (Homo sapiens) (UniProt P11473); details: CV-1
T3 sequence (whole entry): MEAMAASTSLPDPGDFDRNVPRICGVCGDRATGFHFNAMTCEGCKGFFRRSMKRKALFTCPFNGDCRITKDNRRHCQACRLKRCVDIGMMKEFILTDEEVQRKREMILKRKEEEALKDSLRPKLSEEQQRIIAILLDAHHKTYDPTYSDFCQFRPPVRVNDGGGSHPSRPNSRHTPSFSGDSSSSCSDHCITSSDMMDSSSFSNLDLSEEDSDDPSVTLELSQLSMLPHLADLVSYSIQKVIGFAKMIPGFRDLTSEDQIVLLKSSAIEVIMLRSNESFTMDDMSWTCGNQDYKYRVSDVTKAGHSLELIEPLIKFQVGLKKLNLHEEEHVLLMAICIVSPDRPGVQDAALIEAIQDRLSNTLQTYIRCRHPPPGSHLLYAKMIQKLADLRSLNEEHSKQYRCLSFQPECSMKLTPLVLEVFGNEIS
Description: Effect on VDR-mediated transcriptional activity in CV1 cells transfected with human recombinant VDR

| Compound | IC50 [1] | IC50 [2] | ED50 [3] |
| --- | --- | --- | --- |
| C=C1CC[C@H](O)C/C1=C/C=C1\CCC[C@]2(C)[C@@H]([C@H](C)CC[S+](=N)([O-])c3ccccc3)CC[C@@H]12 (stereo partly drawn) | 75 nM |  |  |
| C=C1/C(=C\C=C2/CCC[C@]3(C)[C@@H]([C@@H](C)/C=C/[S+](=N)([O-])c4ccccc4)CC[C@@H]23)C[C@@H](O)C[C@@H]1O (stereo partly drawn) | 549 nM |  |  |
| C=C1/C(=C\C=C2/CCC[C@]3(C)[C@@H]([C@H](C)/C=C(\F)[S+](=N)([O-])c4ccccc4)CC[C@@H]23)C[C@@H](O)C[C@@H]1O (stereo partly drawn) | > 1000 nM |  |  |
| C=C1/C(=C\C=C2/CCC[C@]3(C)[C@@H]([C@H](C)/C=C/[S+](=N)([O-])c4ccccc4)CC[C@@H]23)C[C@@H](O)C[C@@H]1O (stereo partly drawn) | > 1000 nM |  |  |
| C=C1/C(=C\C=C2/CCC[C@]3(C)[C@@H]([C@H](C)CCS(=N)(=O)c4ccccc4)CC[C@@H]23)C[C@@H](O)C[C@@H]1O (stereo in doubt; 3a) [listing 1 of 2 here] | 7.4 nM | 554 nM |  |
| C=C1/C(=C\C=C2/CCC[C@]3(C)[C@@H]([C@H](C)CCS(=N)(=O)c4ccccc4)CC[C@@H]23)C[C@@H](O)C[C@@H]1O (stereo in doubt; 3a) [listing 2 of 2 here] |  |  | > 1000 nM |
| C=C1/C(=C\C=C2/CCC[C@]3(C)[C@@H]([C@H](C)CCS(=N)(=O)c4ccccc4)CC[C@@H]23)C[C@@H](O)C[C@@H]1O (stereo in doubt; 3b) |  |  | > 1000 nM |
| C[C@H](CC[S+](=N)([O-])c1ccccc1)[C@H]1CC[C@H]2/C(=C/C=C3C[C@@H](O)C[C@H](O)C3)CCC[C@]12C (stereo in doubt; 3c) | 13 nM |  |  |
| C[C@H](CC[S+](=N)([O-])c1ccccc1)[C@H]1CC[C@H]2/C(=C/C=C3C[C@@H](O)C[C@H](O)C3)CCC[C@]12C (stereo in doubt; 3d) | 9.7 nM |  |  |
| C=C1/C(=C\C=C2/CCC[C@]3(C)[C@@H]([C@H](C)CC4([S+](=N)([O-])c5ccccc5)CC4)CC[C@@H]23)C[C@@H](O)C[C@@H]1O (stereo in doubt; 3f) | 20.5 nM |  |  |
| C=C1/C(=C\C=C2/CCC[C@]3(C)[C@@H]([C@H](C)CC4([S+](=N)([O-])c5ccccc5)CC4)CC[C@@H]23)C[C@@H](O)C[C@@H]1O (stereo in doubt; 3g) | 50 nM |  |  |
| C=C1/C(=C\C=C2/CCC[C@]3(C)[C@@H]([C@H](C)CC[S+](=N)([O-])c4ccc(F)cc4)CC[C@@H]23)C[C@@H](O)C[C@@H]1O (stereo in doubt; 3i) | 44 nM |  |  |
